Data on 18 compounds can be found in ChEMBL document CHEMBL1926539, “Discovery of novel selective inhibitors of Staphylococcus aureus β-ketoacyl acyl carrier protein synthase III” (Eur J Med Chem, 2012).

Usually MIC stands for the lowest concentration that inhibits growth of the organism. Low readings indicate a more susceptible organism, high ones a less susceptible organism. A word on the Kd: it is the equilibrium constant for the complex coming apart. By IC50 is commonly meant the point on the concentration scale where inhibition reaches its midpoint.

In brackets after ≈: the same amount, converted by molar mass. Bounds are passed on as bounds.

For one series, the system named is Escherichia coli. The series is described as follows: Antimicrobial activity against Escherichia coli KCTC 1682 after 20 hrs by 2 fold serial broth dilution method. In kind it is functional. The note with it: KCTC 1682, 20 h. (Dilution methods test growth across graded concentrations, often in twofold steps.)
For another series, the system named is Enterococcus faecalis. As to the kind of experiment: Antimicrobial activity against Enterococcus faecalis KCTC 2011 after 20 hrs by 2 fold serial broth dilution method. In kind it is functional. The following applies: KCTC 2011, 20 h.
The subject of a further series is Enterococcus faecium. The series is described as follows: Antimicrobial activity against vancomycin-resistant Enterococcus faecium clinical isolate after 20 hrs by 2 fold serial broth dilution method. In kind it is functional.
Series [1] has as its system Staphylococcus aureus. The series is described as follows: Antimicrobial activity against Staphylococcus aureus KCTC 1621 after 20 hrs by 2 fold serial broth dilution method. The following applies: KCTC 1621, 20 h. In kind it is functional.
Series [2] has as its system Staphylococcus aureus. As to the kind of experiment: Antimicrobial activity against methicillin-resistant Staphylococcus aureus CCARM 3114 after 20 hrs by 2 fold serial broth dilution method. Format: functional. The following applies: CCARM 3114, 20 h.
The nature of series [3]: Inhibition of Staphylococcus aureus recombinant GST-tagged KAS3 expressed in Escherichia coli (DE3) at 1:10 protein to drug ratio by fluorescence quenching analysis.
Series [4] can be described thus: Cytotoxicity against mouse NIH/3T3 cells assessed as cell survival at 100 nM after 24 hrs by MTT assay. Format: cell-based, NIH3T3. The following applies: read-out: Activity. For orientation: Tetrazolium assays rely on reduction of a dye to a coloured formazan, in cell work by metabolically active cells.
Series [5] has as its system NIH3T3. The series is described as follows: Cytotoxicity against mouse NIH/3T3 cells after 24 hrs by MTT assay. Format: cell-based. The following applies: NIH3T3, 24 h.
Series [6] concerns NIH3T3. The series is described as follows: Cytotoxicity against mouse NIH/3T3 assessed as cell survival at MIC after 24 hrs by MTT assay. In kind it is cell-based. The following applies: nih3t3, 24 h.

For `CCOC(=O)/C(C#N)=C/c1ccc(O)cc1O`, the MIC in the series on Escherichia coli was > 512 µg/mL; with Enterococcus faecalis, 256 µg/mL (≈ 1100 µM); with Enterococcus faecium, > 512 µg/mL; against Staphylococcus aureus [1] it was > 512 µg/mL; in the series on Staphylococcus aureus [2], 256 µg/mL (≈ 1100 µM). The dissociation constant Kd in [3] worked out at 44 µM.

Take `Cc1nc(CC(=O)c2c(C)cc(O)cc2O)cs1`: the MIC in the series on Escherichia coli, in the series on Enterococcus faecalis, in the series on Enterococcus faecium, with Staphylococcus aureus [1] and against Staphylococcus aureus [2] was > 512 µg/mL each time. Besides, the dissociation constant Kd in series [3] is > 1000 µM.

For the compound `Nc1ccc(NC(=O)NC2CCCCC2)cc1[N+](=O)[O-]`, the MIC was > 512 µg/mL with Escherichia coli; 128 µg/mL (≈ 460 µM) in the series on Enterococcus faecalis; 256 µg/mL (≈ 920 µM) in the series on Enterococcus faecium; > 512 µg/mL against Staphylococcus aureus [1]; > 512 µg/mL in the series with Staphylococcus aureus [2]. Besides, the Kd in [3] was found to be 649 µM.

Turning to `NC(=O)C1(C(N)=O)OC1c1ccc(Cl)c(Cl)c1` (stereo not given), the minimum inhibitory concentration (MIC) was 256 µg/mL (≈ 931 µM) in the series with Escherichia coli; 256 µg/mL (≈ 931 µM) in the series with Enterococcus faecalis; 32 µg/mL (≈ 116 µM) against Enterococcus faecium; 256 µg/mL (≈ 931 µM) against Staphylococcus aureus [1]; 256 µg/mL (≈ 931 µM) against Staphylococcus aureus [2]. The Kd in [3] is > 1000 µM.

Turning to `CCCCCC12CCC(O)(CC1)CC2O` (stereo not given), the MIC in the series on Escherichia coli, with Enterococcus faecalis, against Enterococcus faecium, with Staphylococcus aureus [1] and in the series with Staphylococcus aureus [2] was > 512 µg/mL each time. Also, the Kd in [3] was > 1000 µM.

Regarding `COc1ccccc1NC(=O)c1nc[nH]n1`, the minimal inhibitory concentration (MIC) in the series with Escherichia coli, in the series on Enterococcus faecalis, with Enterococcus faecium, in the series on Staphylococcus aureus [1] and against Staphylococcus aureus [2] was > 512 µg/mL each time. In [3], the Kd was determined as 34.1 µM.

Regarding `Oc1ccc(/C=N/Nc2ccc(C(F)(F)F)cn2)c(O)c1`, the minimum inhibitory concentration (MIC) turned out to be 512 µg/mL (≈ 1720 µM) with Escherichia coli; 64 µg/mL (≈ 215 µM) in the series on Enterococcus faecalis; 32 µg/mL (≈ 108 µM) in the series on Enterococcus faecium; 2 µg/mL (≈ 6.73 µM) against Staphylococcus aureus [1]; 4 µg/mL (≈ 13.5 µM) in the series on Staphylococcus aureus [2]. Besides, the Kd in series [3] is 0.0008 µM. For the same compound, in [4], the viability at 24 h, 0.1 µM was found to be 67%.

Regarding `Cc1cccc(NC(=O)CC2SC(=O)NC2=O)c1` (stereo not given), the MIC against Escherichia coli, against Enterococcus faecalis, in the series with Enterococcus faecium, in the series with Staphylococcus aureus [1] and against Staphylococcus aureus [2] was > 512 µg/mL throughout. The Kd in [3] was > 1000 µM.

For the compound `OC[C@@H]1O[C@H](Oc2cccc(Cl)c2)[C@H](O)[C@H](O)[C@H]1O`, the minimal inhibitory concentration (MIC) is > 512 µg/mL with Escherichia coli; > 512 µg/mL in the series with Enterococcus faecalis; 256 µg/mL (≈ 881 µM) with Enterococcus faecium; > 512 µg/mL against Staphylococcus aureus [1]; > 512 µg/mL with Staphylococcus aureus [2]. In addition, the dissociation constant Kd in [3] stood at 0.36 µM.

With `O=[N+]([O-])c1ccccc1N/N=C/c1ccc(O)c(O)c1`, the MIC against Escherichia coli was > 512 µg/mL; in the series on Enterococcus faecalis it was 256 µg/mL (≈ 937 µM); in the series with Enterococcus faecium, 256 µg/mL (≈ 937 µM); with Staphylococcus aureus [1] it was > 512 µg/mL; in the series on Staphylococcus aureus [2], > 512 µg/mL. In addition, the Kd in [3] worked out at 3.18 µM.

`Oc1ccc(/C=N/c2ccc(Cl)cc2Cl)c(O)c1`: the MIC in the series on Escherichia coli was 64 µg/mL (≈ 227 µM); with Enterococcus faecalis it was > 512 µg/mL; against Enterococcus faecium, > 512 µg/mL; with Staphylococcus aureus [1], 128 µg/mL (≈ 454 µM); against Staphylococcus aureus [2], 128 µg/mL (≈ 454 µM). Further, the Kd in series [3] came out at 0.72 µM.

`Oc1ccc(/C=N/c2cc(Cl)cc(Cl)c2)c(O)c1`: the minimal inhibitory concentration (MIC) was 64 µg/mL (≈ 227 µM) in the series on Escherichia coli; 512 µg/mL (≈ 1810 µM) against Enterococcus faecalis; > 512 µg/mL in the series on Enterococcus faecium; 64 µg/mL (≈ 227 µM) in the series with Staphylococcus aureus [1]; 128 µg/mL (≈ 454 µM) in the series on Staphylococcus aureus [2]. For the same compound, in series [3], the equilibrium dissociation constant (Kd) was found to be 0.61 µM.

Turning to `O=C(N/N=C/c1ccc(O)c(O)c1O)c1ccc(Cl)cc1Cl`, the MIC against Escherichia coli was 64 µg/mL (≈ 188 µM); against Enterococcus faecalis, 32 µg/mL (≈ 93.8 µM); against Enterococcus faecium, 32 µg/mL (≈ 93.8 µM); against Staphylococcus aureus [1], 4 µg/mL (≈ 11.7 µM); in the series with Staphylococcus aureus [2], 4 µg/mL (≈ 11.7 µM). Also, the Kd in [3] is 0.0072 µM. Besides, half-maximal inhibition in the series on NIH3T3 [5] (IC50) required 10.9 µM. In addition, the Activity entry in the series with NIH3T3 [6] is recorded as “Non-toxic”.

Consider `Cc1nc2ccccc2c(=O)n1/N=C/c1ccc(O)cc1O`, for which the minimal inhibitory concentration (MIC) with Escherichia coli, in the series with Enterococcus faecalis, with Enterococcus faecium, in the series with Staphylococcus aureus [1] and in the series with Staphylococcus aureus [2] was > 512 µg/mL throughout. Further, the dissociation constant Kd in series [3] was determined as 0.0009 µM.

As for `Oc1ccc(/C=N/Nc2nccnc2Cl)c(O)c1`, the MIC against Escherichia coli was > 512 µg/mL; in the series with Enterococcus faecalis it was > 512 µg/mL; with Enterococcus faecium, 32 µg/mL (≈ 121 µM); against Staphylococcus aureus [1], 1 µg/mL (≈ 3.78 µM); against Staphylococcus aureus [2], 1 µg/mL (≈ 3.78 µM). In series [3], the dissociation constant (Kd) came out at 0.0003 µM. The compound further showed a 50% inhibitory concentration (IC50) in the series on NIH3T3 [5] of 10.3 µM. Further, in the series on NIH3T3 [6], the Activity entry is “Non-toxic”.

For the compound `Cc1n[nH]c(C)c1CCC(=O)N/N=C/c1ccc(O)cc1O`, the minimum inhibitory concentration (MIC) in the series on Escherichia coli is 256 µg/mL (≈ 847 µM); against Enterococcus faecalis, > 512 µg/mL; in the series on Enterococcus faecium, > 512 µg/mL; in the series on Staphylococcus aureus [1], 128 µg/mL (≈ 423 µM); in the series with Staphylococcus aureus [2], 128 µg/mL (≈ 423 µM). Also, in [3], the Kd stood at 0.23 µM.

With `CCOC(=O)N/N=C/c1ccc(O)cc1O`, the minimum inhibitory concentration (MIC) in the series with Escherichia coli is > 512 µg/mL; in the series on Enterococcus faecalis it was > 512 µg/mL; against Enterococcus faecium, 256 µg/mL (≈ 1140 µM); with Staphylococcus aureus [1], 256 µg/mL (≈ 1140 µM); with Staphylococcus aureus [2], 512 µg/mL (≈ 2280 µM). Moreover, the Kd in [3] turned out to be 1.48 µM.

As to `C=C/C(C)=C/[C@@]1(C)SC(=O)C(C)=C1O` [THIOLACTOMYCIN], in the series with Enterococcus faecium, inhibition of growth (MIC) required 128 µg/mL (≈ 609 µM). The equilibrium dissociation constant (Kd) in [3] turned out to be 55.4 µM. Also, the viability at 24 h, 0.1 µM in series [4] is 85%.
